Test results published in patent US9938516B2, “Non-natural amino acid tRNA synthetases for para-methylazido-L-phenylalanine” (SUTRO BIOPHARMA, INC., priority 2013, dated 2018).

Assay: copper-free click conjugation kinetics with DBCO-PEG
Type: physicochemical
Conditions: 10-fold molar excess DBCO-PEG; 25° C., ionic strength 0.5 M (KCl), 0.005% Tween-20, phosphate buffer
Description: The small molecule conjugation kinetics of pAzF and pAMF were compared. In particular, pAzF and pAMF were reacted at increasing concentrations with a 10-fold molar excess of dibenzocyclooctyl-polyethylene glycol (DBCO-PEG) compound (FIG. 2A and FIG. 2C) in a copper-free click reaction. First-order kinetics at 25° C., ionic strength 0.5 M (KCl), and 0.005% Tween-20 in phosphate buffer were determined under pseudo-first-order conditions in triplicate, using a SpectraMax M5 plate reader with 96-well polystyrene plates (Molecular Devices, Sunnyvale, Calif.). The formation of conjugated product was measured by the decrease in absorbance of the strained cyclooctoalkyne DBCO at 306 nm in the presence of increasing concentrations of pAzF or pAMF. The second-order rate constants were calculated according to kcat (M−1 sec-1)=kobs/[Azido].

Which “reaction rate relative to pAzF” value does the source give for [N-]=[N+]=NCc1ccc(C[C@H](N)C(=O)O)cc1 [pAMF, para-azidomethyl-L-phenylalanine] here?
The value was “seven-fold higher”.
